Results taken from ChEMBL document CHEMBL1144021, “Molecular determinants of the anticonvulsant felbamate binding site in the N-methyl-D-aspartate receptor” (J Med Chem, 2008).

How the values were obtained:
[1] = test system: Glutamate receptor ionotropic, NMDA 2B (Homo sapiens), Q13224 [K234A]; experiment: Binding affinity to NR2B receptor ATD K234A mutant
[2] = Ratio of Kapp for wild type NR2B receptor to Kapp for NR2B receptor T647A/T103A mutant
[3] = test system: Glutamate receptor ionotropic, NMDA 2B (Homo sapiens), Q13224 [S645A,T103A]; experiment: Binding affinity to NR2B receptor S645A/T103A mutant
[4] = test system: Glutamate receptor ionotropic, NMDA 2B (Homo sapiens), Q13224 [S645A]; experiment: Inhibition of NR2B receptor M3c S645A mutant expressed in Xenopus oocytes assessed as NMDA current at 0.5 mM relative to control; assay type: cell-based; conditions: Oocyte
Sequence of Glutamate receptor ionotropic, NMDA 2B (Homo sapiens), Q13224 [S645A] (Q13224 whole entry S645A): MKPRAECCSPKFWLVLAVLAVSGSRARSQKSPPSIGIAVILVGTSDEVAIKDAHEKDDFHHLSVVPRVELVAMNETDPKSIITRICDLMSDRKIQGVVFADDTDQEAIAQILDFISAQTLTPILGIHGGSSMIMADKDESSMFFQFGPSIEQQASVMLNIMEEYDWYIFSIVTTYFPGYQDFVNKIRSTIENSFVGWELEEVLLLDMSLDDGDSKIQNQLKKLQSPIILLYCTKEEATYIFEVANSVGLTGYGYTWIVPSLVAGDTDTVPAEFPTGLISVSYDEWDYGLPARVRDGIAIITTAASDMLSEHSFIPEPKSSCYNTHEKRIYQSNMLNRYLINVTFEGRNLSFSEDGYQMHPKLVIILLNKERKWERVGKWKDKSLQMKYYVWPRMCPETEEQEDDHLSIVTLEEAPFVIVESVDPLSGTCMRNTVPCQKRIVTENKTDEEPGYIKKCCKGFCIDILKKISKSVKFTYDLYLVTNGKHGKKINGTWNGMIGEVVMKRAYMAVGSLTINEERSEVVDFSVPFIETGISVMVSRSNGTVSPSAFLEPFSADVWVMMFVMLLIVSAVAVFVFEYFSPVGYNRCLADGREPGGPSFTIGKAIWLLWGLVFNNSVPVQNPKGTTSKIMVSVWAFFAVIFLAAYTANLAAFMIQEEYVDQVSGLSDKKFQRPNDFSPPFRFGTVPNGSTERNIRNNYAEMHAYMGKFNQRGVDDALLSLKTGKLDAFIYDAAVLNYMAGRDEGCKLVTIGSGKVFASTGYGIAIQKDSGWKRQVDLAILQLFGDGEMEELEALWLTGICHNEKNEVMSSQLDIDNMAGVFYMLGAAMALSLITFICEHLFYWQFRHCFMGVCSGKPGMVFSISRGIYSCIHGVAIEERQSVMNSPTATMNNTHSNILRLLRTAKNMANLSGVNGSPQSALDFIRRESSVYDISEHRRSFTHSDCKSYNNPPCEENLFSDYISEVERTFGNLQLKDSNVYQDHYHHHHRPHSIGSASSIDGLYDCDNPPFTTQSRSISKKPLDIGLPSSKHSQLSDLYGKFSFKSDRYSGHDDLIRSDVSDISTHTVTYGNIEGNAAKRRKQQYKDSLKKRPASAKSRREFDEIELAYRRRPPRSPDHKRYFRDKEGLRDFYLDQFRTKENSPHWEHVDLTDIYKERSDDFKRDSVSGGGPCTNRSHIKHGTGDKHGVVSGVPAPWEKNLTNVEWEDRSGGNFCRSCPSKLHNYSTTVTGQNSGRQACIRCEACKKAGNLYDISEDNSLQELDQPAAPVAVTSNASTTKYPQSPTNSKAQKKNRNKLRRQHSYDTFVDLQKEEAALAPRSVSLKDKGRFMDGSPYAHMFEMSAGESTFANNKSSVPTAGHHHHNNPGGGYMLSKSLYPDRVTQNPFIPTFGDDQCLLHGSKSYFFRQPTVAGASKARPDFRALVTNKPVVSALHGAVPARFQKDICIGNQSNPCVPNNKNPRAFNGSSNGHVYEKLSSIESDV

[5] = test system: Glutamate receptor ionotropic, NMDA 2B (Homo sapiens), Q13224 [T103A]; experiment: Binding affinity to NR2B receptor ATD T103A mutant
[6] = Ratio of Kapp for wild type NR2B receptor to Kapp for NR2B receptor L643C/T647A mutant
[7] = test system: Glutamate receptor ionotropic, NMDA 2B (Homo sapiens), Q13224 [D101A]; experiment: Binding affinity to NR2B receptor ATD D101A mutant
[8] = Ratio of Kapp for wild type NR2B receptor to Kapp for NR2B receptor S645A/K234A mutant
[9] = test system: Glutamate receptor ionotropic, NMDA 2B (Homo sapiens), Q13224 [D104A]; experiment: Inhibition of NR2B receptor ATD D104A mutant expressed in Xenopus oocytes assessed as NMDA current at 0.5 mM relative to control; assay type: cell-based; conditions: Oocyte
[10] = test system: Glutamate receptor ionotropic, NMDA 2B (Homo sapiens), Q13224 [A648C]; experiment: Inhibition of NR2B receptor M3c A648C mutant expressed in Xenopus oocytes assessed as NMDA current at 0.5 mM relative to control; assay type: cell-based; conditions: Oocyte
[11] = Ratio of Kapp for wild type NR2B receptor to Kapp for NR2B receptor T647A/S645A mutant
[12] = Ratio of Kapp for wild type NR2B receptor to Kapp for NR2B receptor ATD E236A mutant
[13] = test system: Glutamate receptor ionotropic, NMDA 2B (Homo sapiens), Q13224 [F642A]; experiment: Inhibition of NR2B receptor M3c F642A mutant expressed in Xenopus oocytes assessed as NMDA current at 0.5 mM relative to control; assay type: cell-based; conditions: Oocyte
[14] = test system: Glutamate receptor ionotropic, NMDA 2B (Homo sapiens), Q13224 [S645A]; experiment: Binding affinity to NR2B receptor M3c S645A mutant
[15] = test system: Glutamate receptor ionotropic, NMDA 2B (Homo sapiens), Q13224 [E658A]; experiment: Inhibition of NR2B receptor post-M3 E658A mutant expressed in Xenopus oocytes assessed as NMDA current at 0.5 mM relative to control; assay type: cell-based; conditions: Oocyte
Sequence of Glutamate receptor ionotropic, NMDA 2B (Homo sapiens), Q13224 [E658A] (Q13224 whole entry E658A): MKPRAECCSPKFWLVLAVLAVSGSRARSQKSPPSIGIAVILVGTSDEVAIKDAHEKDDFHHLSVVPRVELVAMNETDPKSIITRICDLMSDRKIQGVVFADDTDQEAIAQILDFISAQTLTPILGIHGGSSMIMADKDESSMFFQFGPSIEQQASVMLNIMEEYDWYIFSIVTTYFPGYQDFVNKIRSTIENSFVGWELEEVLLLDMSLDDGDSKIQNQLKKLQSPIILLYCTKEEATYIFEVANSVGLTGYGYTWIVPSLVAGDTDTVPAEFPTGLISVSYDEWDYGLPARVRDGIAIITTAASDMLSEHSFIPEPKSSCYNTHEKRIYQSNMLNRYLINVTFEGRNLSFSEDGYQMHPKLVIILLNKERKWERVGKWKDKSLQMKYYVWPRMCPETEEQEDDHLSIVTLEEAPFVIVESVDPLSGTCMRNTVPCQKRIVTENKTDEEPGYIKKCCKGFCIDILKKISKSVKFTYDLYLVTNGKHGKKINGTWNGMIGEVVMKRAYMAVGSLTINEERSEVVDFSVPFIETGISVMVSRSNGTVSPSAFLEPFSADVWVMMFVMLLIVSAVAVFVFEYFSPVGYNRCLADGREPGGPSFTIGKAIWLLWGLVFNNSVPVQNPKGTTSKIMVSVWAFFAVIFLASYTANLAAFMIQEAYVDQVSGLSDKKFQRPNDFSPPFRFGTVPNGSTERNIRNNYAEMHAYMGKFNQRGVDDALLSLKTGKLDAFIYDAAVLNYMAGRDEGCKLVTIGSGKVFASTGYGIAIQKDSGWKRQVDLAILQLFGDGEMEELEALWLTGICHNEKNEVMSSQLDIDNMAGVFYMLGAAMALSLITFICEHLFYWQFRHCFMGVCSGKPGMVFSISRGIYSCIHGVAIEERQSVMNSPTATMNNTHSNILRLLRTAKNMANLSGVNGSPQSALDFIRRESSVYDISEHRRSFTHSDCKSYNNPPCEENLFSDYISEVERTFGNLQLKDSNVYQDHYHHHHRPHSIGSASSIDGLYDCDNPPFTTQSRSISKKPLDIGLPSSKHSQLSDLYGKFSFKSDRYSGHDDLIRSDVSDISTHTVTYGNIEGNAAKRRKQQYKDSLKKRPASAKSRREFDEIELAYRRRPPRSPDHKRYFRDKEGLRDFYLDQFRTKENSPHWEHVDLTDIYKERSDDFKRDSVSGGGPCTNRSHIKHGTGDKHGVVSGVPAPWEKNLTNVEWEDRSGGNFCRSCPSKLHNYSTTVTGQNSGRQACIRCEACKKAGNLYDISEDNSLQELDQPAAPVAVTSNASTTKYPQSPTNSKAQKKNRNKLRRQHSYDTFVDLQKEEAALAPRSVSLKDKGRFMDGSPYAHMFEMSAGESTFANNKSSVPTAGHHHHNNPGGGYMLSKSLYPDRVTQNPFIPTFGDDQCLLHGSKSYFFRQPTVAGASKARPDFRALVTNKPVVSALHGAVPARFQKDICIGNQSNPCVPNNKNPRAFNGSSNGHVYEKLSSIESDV

[16] = test system: Glutamate receptor ionotropic, NMDA 2B (Homo sapiens), Q13224 [L643C,T647A]; experiment: Binding affinity to NR2B receptor L643C/T647A mutant
[17] = test system: Glutamate receptor ionotropic, NMDA 2B (Homo sapiens), Q13224 [S555A]; experiment: Inhibition of NR2B receptor Pre-M1 S555A mutant expressed in Xenopus oocytes assessed as NMDA current at 0.5 mM relative to control; assay type: cell-based; conditions: Oocyte
[18] = test system: Glutamate receptor ionotropic, NMDA 2B (Homo sapiens), Q13224 [I641A]; experiment: Inhibition of NR2B receptor M3c I641A mutant expressed in Xenopus oocytes assessed as NMDA current at 0.5 mM relative to control; assay type: cell-based; conditions: Oocyte
Sequence of Glutamate receptor ionotropic, NMDA 2B (Homo sapiens), Q13224 [I641A] (Q13224 whole entry I641A): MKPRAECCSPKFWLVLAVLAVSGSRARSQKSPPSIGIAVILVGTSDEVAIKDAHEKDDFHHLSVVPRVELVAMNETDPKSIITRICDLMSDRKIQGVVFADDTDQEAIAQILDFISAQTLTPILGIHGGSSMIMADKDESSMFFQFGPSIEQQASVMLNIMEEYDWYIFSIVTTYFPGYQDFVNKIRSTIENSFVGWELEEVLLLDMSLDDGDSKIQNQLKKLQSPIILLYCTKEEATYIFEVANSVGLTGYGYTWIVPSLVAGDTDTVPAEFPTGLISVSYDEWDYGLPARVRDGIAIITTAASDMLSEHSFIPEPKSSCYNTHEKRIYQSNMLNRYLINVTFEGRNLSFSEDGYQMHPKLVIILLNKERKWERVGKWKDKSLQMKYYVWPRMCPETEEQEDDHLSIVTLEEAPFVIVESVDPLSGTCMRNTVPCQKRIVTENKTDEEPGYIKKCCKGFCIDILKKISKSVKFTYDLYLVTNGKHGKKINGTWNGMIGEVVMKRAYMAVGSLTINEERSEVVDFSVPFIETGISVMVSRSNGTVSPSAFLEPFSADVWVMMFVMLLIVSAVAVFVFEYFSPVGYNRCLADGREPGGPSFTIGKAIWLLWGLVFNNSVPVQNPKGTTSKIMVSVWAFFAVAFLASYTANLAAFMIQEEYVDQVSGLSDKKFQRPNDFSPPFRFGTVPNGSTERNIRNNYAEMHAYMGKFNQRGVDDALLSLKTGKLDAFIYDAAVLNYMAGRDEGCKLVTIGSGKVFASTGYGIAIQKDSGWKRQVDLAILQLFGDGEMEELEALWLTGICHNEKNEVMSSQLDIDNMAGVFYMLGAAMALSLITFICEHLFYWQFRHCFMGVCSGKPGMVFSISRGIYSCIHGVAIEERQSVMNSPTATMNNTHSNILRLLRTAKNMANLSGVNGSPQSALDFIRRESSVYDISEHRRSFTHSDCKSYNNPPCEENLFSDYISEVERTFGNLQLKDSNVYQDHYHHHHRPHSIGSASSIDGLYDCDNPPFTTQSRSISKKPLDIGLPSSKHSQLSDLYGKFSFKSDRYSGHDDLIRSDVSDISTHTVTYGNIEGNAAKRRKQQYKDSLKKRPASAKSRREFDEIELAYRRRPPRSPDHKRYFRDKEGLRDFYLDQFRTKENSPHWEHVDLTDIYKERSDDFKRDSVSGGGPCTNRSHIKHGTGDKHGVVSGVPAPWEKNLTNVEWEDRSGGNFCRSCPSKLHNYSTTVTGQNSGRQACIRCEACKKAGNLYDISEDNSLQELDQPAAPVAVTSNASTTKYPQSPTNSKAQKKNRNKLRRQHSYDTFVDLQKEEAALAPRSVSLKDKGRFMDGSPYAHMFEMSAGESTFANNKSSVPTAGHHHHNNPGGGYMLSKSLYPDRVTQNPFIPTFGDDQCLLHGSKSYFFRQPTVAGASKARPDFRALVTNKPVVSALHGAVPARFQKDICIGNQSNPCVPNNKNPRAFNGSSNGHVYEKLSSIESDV

[19] = test system: Glutamate receptor ionotropic, NMDA 2B (Homo sapiens), Q13224 [A644C]; experiment: Inhibition of NR2B receptor M3c A644C mutant expressed in Xenopus oocytes assessed as NMDA current at 0.5 mM relative to control; assay type: cell-based; conditions: Oocyte
[20] = Binding affinity to NR2B receptor M3c […] mutant
[21] = test system: Glutamate receptor ionotropic, NMDA 2B (Homo sapiens), Q13224 [E657A]; experiment: Inhibition of NR2B receptor post-M3 E657A mutant expressed in Xenopus oocytes assessed as NMDA current at 0.5 mM relative to control; assay type: cell-based; conditions: Oocyte
[22] = molecular target: Glutamate receptor ionotropic, NMDA 2B (Homo sapiens) (UniProt Q13224); experiment: Binding affinity to NR2B receptor
[23] = Ratio of Kapp for wild type NR2B receptor to Kapp for NR2B receptor M3c A652T mutant
[24] = test system: Glutamate receptor ionotropic, NMDA 2B (Homo sapiens), Q13224 [I641A]; experiment: Binding affinity to NR2B receptor M3c I641A mutant
[25] = test system: Glutamate receptor ionotropic, NMDA 2B (Homo sapiens), Q13224 [S645A,I641A]; experiment: Binding affinity to NR2B receptor S645A/I641A mutant
[26] = test system: Glutamate receptor ionotropic, NMDA 2B (Homo sapiens), Q13224 [L643A]; experiment: Inhibition of NR2B receptor M3c L643A mutant expressed in Xenopus oocytes assessed as NMDA current at 0.5 mM relative to control; assay type: cell-based; conditions: Oocyte
[27] = test system: Glutamate receptor ionotropic, NMDA 2B (Homo sapiens), Q13224 [N616A]; experiment: Inhibition of NR2B receptor M2 N616A mutant expressed in Xenopus oocytes assessed as NMDA current at 0.5 mM relative to control; assay type: cell-based; conditions: Oocyte
[28] = test system: Glutamate receptor ionotropic, NMDA 2B (Homo sapiens), Q13224 [T647A]; experiment: Inhibition of NR2B receptor M3c T647A mutant expressed in Xenopus oocytes assessed as NMDA current at 0.5 mM relative to control; assay type: cell-based; conditions: Oocyte
[29] = test system: Glutamate receptor ionotropic, NMDA 2B (Homo sapiens), Q13224 [[…]]; experiment: Binding affinity to NR2B receptor M3c T647A mutant
[30] = test system: Glutamate receptor ionotropic, NMDA 2B (Homo sapiens), Q13224 [M654A]; experiment: Inhibition of NR2B receptor post-M3 M654A mutant expressed in Xenopus oocytes assessed as NMDA current at 0.5 mM relative to control; assay type: cell-based; conditions: Oocyte
[31] = test system: Glutamate receptor ionotropic, NMDA 2B (Homo sapiens), Q13224 [F182A]; experiment: Inhibition of NR2B receptor ATD F182A mutant expressed in Xenopus oocytes assessed as NMDA current at 0.5 mM relative to control; assay type: cell-based; conditions: Oocyte
[32] = test system: Glutamate receptor ionotropic, NMDA 2B (Homo sapiens), Q13224 [L643A,T647A]; experiment: Binding affinity to NR2B receptor L643A/T647A mutant
[33] = Ratio of Kapp for wild type NR2B receptor to Kapp for NR2B receptor L643A/T647A mutant
[34] = test system: Glutamate receptor ionotropic, NMDA 2B (Homo sapiens), Q13224 [E236A]; experiment: Binding affinity to NR2B receptor ATD E236A mutant
[35] = Ratio of Kapp for wild type NR2B receptor to Kapp for NR2B receptor M3c I641A mutant
[36] = test system: Glutamate receptor ionotropic, NMDA 2B (Homo sapiens), Q13224 [V640A]; experiment: Inhibition of NR2B receptor M3c V640A mutant expressed in Xenopus oocytes assessed as NMDA current at 0.5 mM relative to control; assay type: cell-based; conditions: Oocyte
[37] = test system: Glutamate receptor ionotropic, NMDA 2B (Homo sapiens), Q13224 [A652T]; experiment: Binding affinity to NR2B receptor M3c A652T mutant

Work on NC(=O)OCC(COC(N)=O)c1ccccc1 yielded a Kapp [1] of 4.31 mM, a Ratio Ki(app) [2] of 7.7 and a Kapp [3] of 6.28 mM. It also gave an inhibition [4] of 85%, a Kapp [5] of 4.21 mM and a Ratio Ki(app) [6] of 21. It also gave a Kapp [7] of 2.76 mM, a Ratio Ki(app) [8] of 8.2 and an inhibition [9] of 75%. For the same compound, the inhibition [10] was 73%, the Ratio Ki(app) [11] was 8.1 and the Ratio Ki(app) [12] was 2.5. The inhibition [13] was 75%, the Kapp [14] was 4.23 mM and the inhibition [15] was 65%. For the same compound, the Kapp [16] was 18.6 mM, the inhibition [17] was 72% and the inhibition [18] was 84%. For the same compound, the inhibition [19] was 73%, the Kapp [20] was 5.64 mM and the inhibition [21] was 61%. The Kapp [22] was 0.87 mM, the Ratio Ki(app) [23] was 3.3 and the Kapp [24] was 2.45 mM. The Kapp [25] was 4.43 mM, the inhibition [26] was 90% and the inhibition [27] was 72%. The inhibition [28] was 89%, the Kapp [29] was 6.5 mM and the inhibition [30] was 71%. For the same compound, the inhibition [31] was 72%, the Kapp [32] was 34.5 mM and the Ratio Ki(app) [33] was 40. It also gave a Kapp [34] of 2.18 mM, a Ratio Ki(app) [35] of 2.8 and an inhibition [36] of 71%. It also gave a Kapp [37] of 2.92 mM.
